Patent US9334267B2, “RAF inhibitor compounds” (Deciphera Pharmaceuticals, LLC, priority 2012, dated 2016)

Experiments:
human B-Raf V600E = molecular target: T1, human B-Raf V600E (Homo sapiens, UniProt P15056, V600E); assay: Enzymatic assay of B-Raf V600E kinase activity (Raf/MEK1 ATPase, coupled PK/LDH, A340); assay type: biochemical; conditions: read-out: Enzyme IC50, nM B-Raf V600E
T1 construct: B-RafV600E (residues 433-726 containing V600E mutation) containing an N-terminal purification tag is expressed and purified; made in house
T1 sequence (P15056 433-726 V600E): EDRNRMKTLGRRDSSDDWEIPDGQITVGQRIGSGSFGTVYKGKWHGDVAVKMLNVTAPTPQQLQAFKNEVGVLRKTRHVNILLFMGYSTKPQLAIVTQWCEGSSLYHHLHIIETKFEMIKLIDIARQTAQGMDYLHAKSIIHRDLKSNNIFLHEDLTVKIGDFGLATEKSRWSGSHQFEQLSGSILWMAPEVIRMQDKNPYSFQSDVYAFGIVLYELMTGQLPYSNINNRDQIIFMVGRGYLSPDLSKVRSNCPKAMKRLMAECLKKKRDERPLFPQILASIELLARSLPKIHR
Experimental: Test compounds are evaluated for their inhibitory activities against one or more of human wild type B-Raf, human wild type C-Raf, human B-Raf V600E, human B-Raf V600E+T529I or human B-Raf V600E+G468A. T529I is a threonine to isoleucine B-Raf gatekeeper mutation and G468A is a B-Raf secondary mutation at G1403C in exon 11. The enzymatic assays of B-Raf, C-Raf and B-Raf mutations evaluate a property of Raf and MEK1 complex, which in the presence of ATP, catalyzes an enhanced ATP hydrolysis (Rominger, et al, Arch. Biochem. Biophys. 2007, 464: 130-137; US Patent Publication No. 2006/0211073). The ADP formed is monitored by the well-known coupled PK/LDH (pyruvate kinase/lactate dehydrogenase) system in the form of NADH oxidation, which can be monitored and detected spectrophotometrically by absorbance at 340 nm (A340; for principal of the method see Schindler et al, Science, 2000, 289: 1938-1942). Raf activated MEK1 ATPase activity is a property shared by all forms of Raf proteins.
B-RafV600E (residues 433-726 containing V600E mutation) containing an N-terminal purification tag is expressed and purified essentially as described previously (Wan et al, Cell, 2004, 116, 855-867).
Test compounds are evaluated for their inhibitory activities against one or more of wild type B-Raf, wild type C-Raf, B-Raf V600E, B-Raf V600E+T529I and B-Raf V600E+G468A. T529I is a B-Raf gatekeeper mutation and G468A is a B-Raf secondary mutation. The enzymatic assays of B-Raf, C-Raf and B-Raf mutations evaluate a property of Raf and MEK1 complex, which in the presence of ATP, catalyzes an enhanced ATP hydrolysis (Rominger, et al, Arch. Biochem. Biophys. 2007, 464: 130-137). The ADP formed is monitored by the well-known coupled PK/LDH (pyruvate kinase/lactate dehydrogenase) system in the form of NADH oxidation, which can be monitored and detected by absorbance at 340 nm (A340; for principal of the method see Schindler et al, Science, 2000, 289: 1938-1942). Raf activated MEK1 ATPase activity is a property shared by all forms of Raf proteins. In the B-Raf wild type enzymatic assay, the reaction mixture contains 1.2 nM B-Raf, 30 nM MEK1, 1000 uM ATP, 3.5 units (per 100 ul) of PK, 5 units (per 100 ul) of LDH, 1 mM phosphoenol pyruvate (PEP), and 280 uM of NADH. In the C-Raf assay, the reaction mixture contains 0.6 nM C-Raf, 26 nM MEK1, 2000 uM ATP, and the same amount of PK, LDH, PEP and NADH as above. In the B-Raf V600E assay, the reaction mixture contains […] B-Raf V600E, 26 nM MEK1, 200 uM ATP and the same amount of PK, LDH, PEP and NADH as above. In the B-RafV600E+T529I assay, the reaction mixture contains 6.2 nM B-Raf V600E+T529I, 30 nM MEK1, 200 uM ATP and the same amount of PK, LDH, PEP and NADH as above. In the B-Raf V600E+G468A assay, the reaction mixture contains 3.5 nM B-Raf, 30 nM MEK1, 200 uM ATP and the same amount of PK, LDH, PEP and NADH as above. All assays are started by mixing the above mixture with test compound and monitoring at A340 continuously for approximately 5 hr. […] In the aforementioned assays, the enzyme constructs can be screened prior to or after cleavage of the N-terminal purification tag.

human wild type c-KIT = molecular target: T2, human wild type c-KIT (Homo sapiens, UniProt P10721); assay: Enzymatic assay of c-Kit kinase activity (poly E4Y phosphorylation, coupled PK/LDH); assay type: biochemical
T2 construct: GST (N); made in house
T2 sequence (P10721 26-976): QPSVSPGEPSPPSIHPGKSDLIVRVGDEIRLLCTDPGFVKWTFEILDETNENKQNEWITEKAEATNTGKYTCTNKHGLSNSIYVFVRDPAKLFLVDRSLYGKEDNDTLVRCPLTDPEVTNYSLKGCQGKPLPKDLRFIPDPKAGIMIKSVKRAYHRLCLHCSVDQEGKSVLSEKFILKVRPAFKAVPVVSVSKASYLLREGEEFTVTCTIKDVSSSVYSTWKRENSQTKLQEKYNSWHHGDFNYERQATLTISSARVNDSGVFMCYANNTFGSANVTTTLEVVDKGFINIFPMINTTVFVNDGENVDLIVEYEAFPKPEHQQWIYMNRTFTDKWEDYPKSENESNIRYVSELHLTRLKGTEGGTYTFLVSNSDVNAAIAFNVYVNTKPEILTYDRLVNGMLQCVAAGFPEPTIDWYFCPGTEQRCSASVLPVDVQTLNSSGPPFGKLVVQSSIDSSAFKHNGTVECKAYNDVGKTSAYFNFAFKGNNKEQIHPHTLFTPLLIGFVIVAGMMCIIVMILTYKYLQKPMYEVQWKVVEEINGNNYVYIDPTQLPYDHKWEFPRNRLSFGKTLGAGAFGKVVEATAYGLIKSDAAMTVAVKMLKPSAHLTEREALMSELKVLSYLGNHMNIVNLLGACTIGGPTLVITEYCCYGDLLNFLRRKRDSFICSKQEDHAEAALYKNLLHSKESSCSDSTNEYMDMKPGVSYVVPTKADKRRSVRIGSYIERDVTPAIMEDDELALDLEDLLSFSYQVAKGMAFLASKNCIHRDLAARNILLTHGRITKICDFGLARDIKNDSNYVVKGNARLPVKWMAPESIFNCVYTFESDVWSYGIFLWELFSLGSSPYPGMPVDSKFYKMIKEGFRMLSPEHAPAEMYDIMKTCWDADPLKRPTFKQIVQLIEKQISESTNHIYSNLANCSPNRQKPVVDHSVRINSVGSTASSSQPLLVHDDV
Text: c-Kit is an important oncogene, and its overexpression and genetic mutations often occur in melanoma and gastrointestinal stromal tumor (GIST) patients. In the c-Kit enzymatic assay, the phosphorylation of poly E4Y by ATP catalyzed by human c-Kit is monitored spectrophotometrically. The ADP produced from the kinase reaction is coupled to pyruvate kinase/lactate dehydrogenase (PK/LDH) reactions where NAD is formed from pyruvate and NADH. NADH can be detected by absorbance at 340 nm, as described above for enzymatic assays of kinase activities of B-Raf, C-Raf and B-Raf mutations.
The assay reaction mixture includes 6 nM human wild type c-KIT, 1 mg/mL Poly (Glu,Tyr) (Sigma), 1 mM Phosphoenol-pyruvate, 280 μM NADH, 5 U/3.5 U (per 100 ul) Pyruvate Kinase/Lactate Dehydrogenase, 85 mM Tris, pH 7.5, 17 mM MgCl2, 0.0042% Triton® X-100, 0.005% BSA, 1% DMSO. Test compound is incubated with the reaction mixture for 0.5 hour before adding 200 μM ATP to start the reaction at 30° C.

HT-29 cells = assay: HT-29 cell proliferation assay (resazurin); assay type: cell-based; conditions: Homo sapiens, V600E mutation, read-out: Cell Proliferation Inhibition IC50, nM HT-29
Experimental: HT-29 cells (catalog #HTB-38) are obtained from the American Type Culture Collection (ATCC, Manassas, Va.). Briefly, cells are grown in McCoy's 5A supplemented with 10% characterized fetal bovine serum (Invitrogen, Carlsbad, Calif.), and 1% Penicillin/Streptomycin/L-Glutamine at 37 degrees Celsius, 5% CO2, and 95% humidity. Cells are allowed to expand until reaching 75-90% confluency at which point they are subcultured or harvested for assay use. A serial dilution of test compound is dispensed into a 384-well black clear bottom plate in triplicate. One thousand two-hundred fifty cells are added per well in 50 μL complete growth medium in the 384-well plate. Plates are incubated for 67 hours at 37 degrees Celsius, 5% CO2, and 95% humidity. At the end of the incubation period, 10 μL of a 440 μM solution of resazurin (Sigma, St. Louis, Mo.) in PBS is added to each well of the plate and plates are incubated for an additional 5 hours at 37 degrees Celsius, 5% CO2, and 95% humidity. Plates are read on a Synergy2 reader (Biotek, Winooski, Vt.) using an excitation of 540 nm and an emission of 600 nm. Data is analyzed using Prism software (Graphpad, San Diego, Calif.) to calculate IC50 values.
The A375, HT-29, and Colo-205 cells (ATCC) harbor a V600E mutation.

HCT-116 cells = assay: HCT-116 cell proliferation assay (resazurin); assay type: cell-based; conditions: Homo sapiens, K-Ras mutation B-Raf wild type, read-out: Cell Proliferation Inhibition IC50, nM HCT-116

Structure (SMILES)	IC50 (human B-Raf V600E) [nM]	IC50 (human wild type c-KIT) [nM]	IC50 (HT-29 cells) [nM]	IC50 (HCT-116 cells) [nM]	IC50 shift A375 to A375res (A375res cells)
CNc1ncc2cc(-c3cc(NC(=O)NCC(O)C(C)(C)C)c(F)cc3C)c(C)nc2n1 (stereo not shown) [Example 15, 1-[2-Fluoro-4-methyl-5-(7-methyl-2-methylamino-pyrido[2,3-d]pyrimidin-6-yl)phenyl]-3-(2-hydroxy-3,3-dimethyl-butyl)urea]	< 150	< 150	< 100	100 to 1000	0.6-1.9 fold
Cc1cc(F)c(NC(=O)NCCC(C)(C)C)cc1-c1cc2cnc(NCCN3CCOCC3)nc2nc1C [Example 21, 1-(3,3-Dimethylbutyl)-3-(2-fluoro-4-methyl-5-(7-methyl-2-((2-morpholinoethyl)amino)pyrido[2,3-d]pyrimidin-6-yl)phenyl)ure]	< 150	< 150	< 100	100 to 1000	0.6-1.9 fold
Cc1cc(F)c(NC(=O)NCCC(C)(C)C)cc1-c1cc2cnc(NCc3cn(C)cn3)nc2nc1C [Example 22, 1-(3,3-Dimethylbutyl)-3-(2-fluoro-4-methyl-5-(7-methyl-2-(((1-methyl-1H-imidazol-4-yl)methyl)amino)pyrido[2,3-d]pyrimidin-6-yl)phenyl)urea]	< 150	< 150	< 100	100 to 1000	
Cc1cc(F)c(NC(=O)NCCC2(C)CC2)cc1-c1cc2cnc(N)nc2nc1C [Example 23, 1-(5-(2-Amino-7-methylpyrido[2,3-d]pyrimidin-6-yl)-2-fluoro-4-methylphenyl)-3-(2-(1-methylcyclopropyl)ethyl)urea]	< 150	< 150	< 100	100 to 1000	
Cc1cc(F)c(NC(=O)NCCC(C)(C)F)cc1-c1cc2cnc(NCCO)nc2nc1C [Example 29, 1-(3-Fluoro-3-methylbutyl)-3-(2-fluoro-5-(2-((2-hydroxyethyl)amino)-7-methylpyrido[2,3-d]pyrimidin-6-yl)-4-methylphenyl)urea]	< 150	< 150	100 to 1000	1000 to 10000	
COCCNc1ncc2cc(-c3cc(NC(=O)NC4CC(C)(C)C4)c(F)cc3C)c(C)nc2n1 [Example 31, 1-(3,3-Dimethylcyclobutyl)-3-(2-fluoro-5-(2-((2-methoxyethyl)amino)-7-methylpyrido[2,3-d]pyrimidin-6-yl)-4-methylphenyl)urea]	< 150	< 150	< 100	100 to 1000	

Other lines, results leading:

IC50 (human B-Raf V600E) [nM]	IC50 (human wild type c-KIT) [nM]	IC50 (HT-29 cells) [nM]	IC50 (HCT-116 cells) [nM]	IC50 shift A375 to A375res (A375res cells)	Structure (SMILES)
< 150	< 150	< 100	100 to 1000	0.6-1.9 fold	CNc1ncc2cc(-c3cc(NC(=O)NCCC(C)(C)F)c(F)cc3C)c(C)nc2n1 [Example 4, 1-(3-Fluoro-3-methylbutyl)-3-(2-fluoro-4-methyl-5-(7-methyl-2-(methylamino)pyrido[2,3-d]pyrimidin-6-yl)phenyl)urea]
< 150	< 150	< 100	100 to 1000	0.6-1.9 fold	Cc1cc(F)c(NC(=O)NCCC(C)(C)C)cc1-c1cc2cnc(NCCO)nc2nc1C [Example 16, 1-(3,3-Dimethylbutyl)-3-[2-fluoro-5-[2-(2-hydroxyethylamino)-7-methyl-pyrido[2,3-d]pyrimidin-6-yl]-4-methyl-phenyl]urea]
< 150	< 150	< 100	100 to 1000	0.6-1.9 fold	Cc1cc(F)c(NC(=O)NCCC(C)(C)C)cc1-c1cc2cnc(NCCN(C)C)nc2nc1C [Example 17, 1-[5-[2-(2-Dimethylaminoethylamino)-7-methyl-pyrido[2,3-d]pyrimidin-6-yl]-2-fluoro-4-methyl-phenyl]-3-(3,3-dimethylbutyl)urea]
< 150	< 150	< 100	100 to 1000	0.6-1.9 fold	Cc1cc(F)c(NC(=O)NCCC(C)(C)C)cc1-c1cc2cnc(N)nc2nc1C [Example 20, 1-(5-(2-Amino-7-methylpyrido[2,3-d]pyrimidin-6-yl)-2-fluoro-4-methylphenyl)-3-(3,3-dimethylbutyl)urea]
< 150	< 150	< 100	100 to 1000		CNc1ncc2cc(-c3cc(NC(=O)NCCC(C)(C)C)c(F)cc3Br)c(C)nc2n1 [Example 32, 1-(4-Bromo-2-fluoro-5-(7-methyl-2-(methylamino)pyrido[2,3-d]pyrimidin-6-yl)phenyl)-3-(3,3-dimethylbutyl)urea]
< 150	< 150	< 100	100 to 1000		CC(=O)Nc1ncc2cc(-c3cc(NC(=O)NCCC(C)(C)C)c(F)cc3C)c(C)nc2n1 [Example 33, N-(6-(5-(3-(3,3-Dimethylbutyl)ureido)-4-fluoro-2-methylphenyl)-7-methylpyrido[2,3-d]pyrimidin-2-yl)acetamide]
< 150	< 150	100 to 1000	1000 to 10000		CNc1ncc2cc(-c3cc(NC(=O)NCCC(C)(C)C)c(F)cc3F)cnc2n1 [Example 36, 1-(2,4-Difluoro-5-(2-(methylamino)pyrido[2,3-d]pyrimidin-6-yl)phenyl)-3-(3,3-dimethylbutyl)urea methanesulfonate]
